Among the test systems are OVCAR-5 ovarian; HOP-62 NSCLC; UACC-257 melanoma; MALME-3M melanoma; T-47D breast; SR leukemia; HT29 colon; SNB-19 CNS; RPMI-8226 leukemia; SN12C renal.
Test in all cases: NCI-60 cell line screen, 48 h

Values joined by “and” are separate entries in the source; they are usually repeats but may differ in a detail not shown here. Identical values can stand only once.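 In this assay, cells in 96-well plates receive the compound at five concentrations for 48 hours. Endpoints are linearly interpolated between the surrounding concentrations. TGI marks complete inhibition of growth.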

In the case of `COC1/C=C/C(C)C(C(C)C(OC)C(C)CCC(=O)C(C)C(C/C=C/N(C)C=O)OC)OC(=O)/C=C/C=C(\C)CC(OC)C(OC)C2=CC(=O)O[C@@H](C(C)C(OC)CC(OC)/C=C/C(C)C(O)C1)[C@H]2O` (stereo partly specified), the TGI with OVCAR-5 ovarian is 0.623 µM; in the assay on HOP-62 NSCLC, 0.218 µM; in the assay on UACC-257 melanoma, 0.338 µM; in the assay on MALME-3M melanoma, 0.493 µM; in the assay with T-47D breast, 0.538 µM; in the assay with SR leukemia it was more than 31.6 µM. The same compound gave a TGI in the assay on HT29 colon of 2.15 µM.

In the case of `COc1ccc2c(c1)CC[C@@H]1[C@@H]2CC[C@]2(C)C(=O)/C(=C/c3cc(OC)c(OC)c(OC)c3)C[C@@H]12`, the TGI with OVCAR-5 ovarian was 62.4 µM; in the assay with SNB-19 CNS it was more than 100 µM; in the assay with HOP-62 NSCLC, 30.7 µM; in the assay on MALME-3M melanoma, 35 µM; in the assay on T-47D breast it was more than 100 µM; with SR leukemia it was more than 100 µM. Also, the TGI with RPMI-8226 leukemia is more than 100 µM.

On to `CN(C)CCn1c(=O)c2ccc3c4c(nn3CCN(C)C)c3ccccc3n(c1=O)c24`, for which the TGI was found to be 2.89 µM in the assay on OVCAR-5 ovarian; 3.75 µM in the assay on SNB-19 CNS; 1.88 µM in the assay with HOP-62 NSCLC; 1.59 µM in the assay on SN12C renal; 3.24 µM in the assay with UACC-257 melanoma; 2.13 µM in the assay on MALME-3M melanoma. Also, the TGI amounted to 3.74 µM in the assay on T-47D breast, 1.85 µM in the assay with SR leukemia, 2.23 µM with HT29 colon and 4.07 µM with RPMI-8226 leukemia.

Take `CCCCCCCCC/C=C1\CC(CO)(COC(=O)c2ccccc2)OC1=O` (stereo unspecified): the TGI is 33.2 µM in the assay on OVCAR-5 ovarian; 40.2 µM in the assay with SNB-19 CNS; 29.8 µM in the assay with HOP-62 NSCLC; 49.7 µM in the assay with SN12C renal; 79.9 µM in the assay on UACC-257 melanoma; 39.5 µM in the assay on MALME-3M melanoma. For the same compound, the results for the TGI with T-47D breast, in the assay on SR leukemia and in the assay with HT29 colon were 72.6 µM, more than 100 µM and 35.3 µM, respectively.

Take `CC1CCC2(CC1)N=C1CCC(C)CC1C1(CCC(C)CC1)N2` (stereo unspecified): the TGI in the assay on OVCAR-5 ovarian, with SNB-19 CNS, with UACC-257 melanoma, in the assay with MALME-3M melanoma, in the assay on T-47D breast and in the assay on SR leukemia was more than 100 µM in each case. In addition, the TGI in the assay on HT29 colon and in the assay on RPMI-8226 leukemia was more than 100 µM throughout.

As for `NCCCCNC1(c2cc3ccccc3s2)CCCCC1`, the TGI is 19.2 µM in the assay with OVCAR-5 ovarian; 21.1 µM in the assay with SNB-19 CNS; 20 µM in the assay with HOP-62 NSCLC; 25.1 µM in the assay on SN12C renal; 3.38 µM in the assay on UACC-257 melanoma; 4.01 µM in the assay on MALME-3M melanoma. Also, the TGI in the assay on T-47D breast turned out to be 5.23 µM; in the assay on SR leukemia it was 3.58 µM; with HT29 colon, 9.7 µM; in the assay on RPMI-8226 leukemia, 6.1 µM.

Regarding `COc1ccc(C2=CN3CCC[C@H]3C=C2c2cc(O)c(OC)c(OC)c2)cc1OC`, the TGI in the assay on OVCAR-5 ovarian is 0.127 µM; in the assay on HOP-62 NSCLC it was 0.122 µM and 0.148 µM; in the assay with SN12C renal it was 0.0568 µM and 0.189 µM; with UACC-257 melanoma it was 0.0899 µM; in the assay with MALME-3M melanoma it was 0.0333 µM; with T-47D breast it was 0.0938 µM. Besides, the TGI is 0.0518 µM with SR leukemia; 0.113 µM and 0.0377 µM with HT29 colon; 0.0806 µM and 0.202 µM in the assay on RPMI-8226 leukemia.

As for `Cc1cc([N+](=O)[O-])ccc1N=NC(=O)NNc1ccc([N+](=O)[O-])cc1C`, the TGI was 31.8 µM in the assay with OVCAR-5 ovarian; 37.8 µM in the assay with SNB-19 CNS; 29 µM in the assay on HOP-62 NSCLC; 63.8 µM with SN12C renal; 39.4 µM with UACC-257 melanoma; 37 µM with MALME-3M melanoma. Moreover, the TGI in the assay on T-47D breast turned out to be 28.9 µM; in the assay on SR leukemia, 47.6 µM; with HT29 colon, 45.6 µM; in the assay with RPMI-8226 leukemia it was 55.2 µM.

Consider `CC[C@@H]1CC[C@@H]2[C@H](CC[C@]3(C)[C@@H](OS(=O)(=O)c4ccc(C)cc4)CC[C@@H]23)[C@H]1CO`, for which the TGI with OVCAR-5 ovarian, with SNB-19 CNS, with HOP-62 NSCLC, with SN12C renal, with UACC-257 melanoma and in the assay with MALME-3M melanoma was more than 100 µM throughout. In addition, the TGI in the assay with T-47D breast, in the assay on SR leukemia, in the assay with HT29 colon and in the assay on RPMI-8226 leukemia was more than 100 µM throughout.

For the compound `O=C1O[C@]2(c3ccccc3)C(c3ccccc3)=C[C@]2(C(=O)c2ccccc2)C1=O`, the TGI in the assay on OVCAR-5 ovarian, in the assay on SNB-19 CNS, with HOP-62 NSCLC, in the assay with SN12C renal, in the assay on UACC-257 melanoma and with MALME-3M melanoma was more than 100 µM each time. Moreover, the TGI is more than 100 µM with T-47D breast, 30.7 µM in the assay with SR leukemia, more than 100 µM in the assay with HT29 colon and 64.9 µM with RPMI-8226 leukemia.

Take `COc1cc(C2S/C(=C/c3ccccc3)C(=O)N2c2cccc([N+](=O)[O-])c2)cc(OC)c1OC` (stereo unspecified): the TGI with OVCAR-5 ovarian, with SNB-19 CNS, in the assay with HOP-62 NSCLC, in the assay with SN12C renal, in the assay with UACC-257 melanoma and with MALME-3M melanoma was more than 100 µM in each case. In addition, the figures for the TGI with T-47D breast, with SR leukemia and in the assay on HT29 colon were 21.4 µM, more than 100 µM and more than 100 µM, respectively.

In the case of `COc1cc(C(SCc2ccccc2)SCc2ccccc2)ccc1O`, the TGI in the assay with SNB-19 CNS, in the assay on HOP-62 NSCLC, in the assay with SN12C renal, in the assay on MALME-3M melanoma, in the assay on T-47D breast and in the assay on SR leukemia was more than 10 µM each time. In addition, the TGI in the assay with HT29 colon and in the assay with RPMI-8226 leukemia was more than 10 µM in each case.

Turning to `Cn1ccc(C(=O)NCCCCCNC(=O)c2ccn(C)c(=O)c2O)c(O)c1=O`, the TGI in the assay on SNB-19 CNS, in the assay with SN12C renal, with UACC-257 melanoma, in the assay with MALME-3M melanoma, with T-47D breast and in the assay with SR leukemia was more than 100 µM in each case. Moreover, the TGI in the assay with HT29 colon was more than 100 µM.

Take `CC(C)C1=CC23CCC4C(C)(C(=O)O)CCCC4(C)C2CC1C(C(=O)O)C3C(=O)O` (stereo unspecified): the TGI in the assay on OVCAR-5 ovarian, in the assay with SNB-19 CNS, in the assay with HOP-62 NSCLC, with SN12C renal, in the assay on MALME-3M melanoma and in the assay on T-47D breast was more than 100 µM each time. Moreover, the TGI in the assay on SR leukemia and in the assay on HT29 colon was more than 100 µM each time.

In the case of `CC(C)C(C/C=C1\CC(CO)(COC(=O)CC(C(C)C)C(C)C)OC1=O)C(C)C` (stereo unspecified), the TGI with OVCAR-5 ovarian came to 26.9 µM; in the assay with SNB-19 CNS it was 26.5 µM; with HOP-62 NSCLC it was 20.5 µM; in the assay with SN12C renal, 22.1 µM; with UACC-257 melanoma it was 29.5 µM; with MALME-3M melanoma, 14.5 µM. The TGI in the assay on T-47D breast is 30.7 µM; in the assay on SR leukemia, 31.6 µM; in the assay with HT29 colon, 32.6 µM.

The record behind these values is PubChem BioAssay (NCI).
